Measurements as given in publication PMC4657098, “A Review of the Updated Pharmacophore for the Alpha 5 GABA(A) Benzodiazepine Receptor Model” (International Journal of Medicinal Chemistry, 2015).
Values joined by “and” are separate entries in the source; they are usually repeats but may differ in a detail not shown here. Equal entries are not always repeated. Where two headings read alike, the source gives them in different places.

Key:
α2β3γ2 GABAA/BzR = α2β3γ2 GABAA/BzR (Homo sapiens, UniProt P18507+P47869); experiment: Competition binding to HEK cell membranes, α2β3γ2; design: expressed in transfected cells
α4β3γ2 GABAA/BzR = target: T1, α4β3γ2 GABAA/BzR (Homo sapiens, UniProt P18507+P48169); experiment: biochemical; format: binding
T1 construct: expressed in transfected cells; host or cells: LTK cells (given for XLi-093 only)

α6β3γ2 GABAA/BzR = α6β3γ2 GABAA/BzR (Homo sapiens, UniProt P18507+Q16445); experiment: Competition binding to HEK cell membranes, α6β3γ2; design: expressed in transfected cells
α1β3γ2 GABAA/BzR = α1β3γ2 GABAA/BzR (Homo sapiens, UniProt P14867+P18507); experiment: Competition binding to HEK cell membranes, α1β3γ2; design: expressed in transfected cells
α3β3γ2 GABAA/BzR = α3β3γ2 GABAA/BzR (Homo sapiens, UniProt P18507+P34903); experiment: Competition binding to HEK cell membranes, α3β3γ2; design: expressed in transfected cells
α5β3γ2 GABAA/BzR = α5β3γ2 GABAA/BzR (Homo sapiens, UniProt P18507+P31644); experiment: Competition binding to HEK cell membranes, α5β3γ2; design: expressed in transfected cells

Compound	Ki (α2β3γ2 GABAA/BzR; read-out: Ki α2)	Ki (α4β3γ2 GABAA/BzR; read-out: Ki α4)	Ki (α6β3γ2 GABAA/BzR; read-out: Ki α6)	Ki (α1β3γ2 GABAA/BzR; read-out: Ki α1)	Ki (α3β3γ2 GABAA/BzR; read-out: Ki α3)	Ki (α5β3γ2 GABAA/BzR; read-out: Ki α5)	also measured
O=C(OC(C(F)(F)F)C(F)(F)F)c1ncn2c1C1CCCN1C(=O)c1ccccc1-2 (stereo not shown) [MMB-III-018]	140 nM	3500 nM	976 nM	117 nM	78 nM	14 nM	
C#Cc1ccc2c(c1)C(c1ccccc1F)=NCC(=O)N2C [OMB-18]	1.2 nM	1730 nM	5 nM	3.9 nM	3.4 nM	0.8 nM	
C#Cc1ccc2c(c1)C(=O)N(C)Cc1c(C(=O)OCC)ncn1-2 [RY-080 C17H15N3O3]							Ki (α2β3γ2 GABAA/BzR; Ki α2): 21.4 nM; Ki (α4β3γ2 GABAA/BzR): 5.3 nM; Ki (α6β3γ2 GABAA/BzR; Ki α6): 28.8 nM; Ki (α1β3γ2 GABAA/BzR; Ki α1): 28.4 nM; Ki (α3β3γ2 GABAA/BzR; Ki α3): 25.8 nM; Ki (α5β3γ2 GABAA/BzR; Ki α5): 0.49 nM
CN1Cc2c(C(=O)OC(C)(C)C)ncn2-c2ccc(C#C[Si](C)(C)C)cc2C1=O [RY-023 C22H27N3O3Si]	143 nM	7.8 nM	58.6 nM	197 nM	255 nM	2.61 nM	
C#Cc1ccc2c(c1)C(c1ccccc1F)=NC(C)C(=O)N2C (stereo not shown) [OMB-19]	4.6 nM	3330 nM	40 nM	22 nM	20 nM	3.5 nM	
CCC(OC(=O)c1ncn2c1C1CCCN1C(=O)c1cc(Br)ccc1-2)C(F)(F)F (stereo not shown) [MMB-II-87]	333 nM	109 nM	333 nM	200 nM	107 nM	5.4 nM	
COc1ccc2c(c1)C(=O)N1CCC1c1c(C(=O)OC(C)(C)C)ncn1-2 (stereo not shown) [CM-D45 C19H21N3O4]	65.5 nM	0.15 nM	0.23 nM	90.5 nM	30.3 nM	1.65 nM	
COCc1c(C(=O)OC(C)C)ncc2[nH]c3ccc(OCc4ccccc4)cc3c12 [ABECARNIL, reference compound]							Ki (α2β3γ2 GABAA/BzR; Ki α2): 15.3 nM; Ki (α6β3γ2 GABAA/BzR; Ki α6): 1000 nM; Ki (α1β3γ2 GABAA/BzR; Ki α1): 12.4 nM; Ki (α3β3γ2 GABAA/BzR; Ki α3): 7.5 nM; Ki (α5β3γ2 GABAA/BzR; Ki α5): 6 nM
CCC(OC(=O)c1ncn2c1C1CCCN1C(=O)c1cc(Br)ccc1-2)C(F)(F)F (mixture of isomers) [CM-B34]	451 nM	114 nM	175 nM	472 nM	223 nM	17 nM	
CC(C)(C)OC(=O)c1ncn2c1[C@@H]1CCCN1C(=O)c1c(Br)cccc1-2 [BRETAZENIL, reference compound]							Ki (α2β3γ2 GABAA/BzR; Ki α2): 0.64 nM; Ki (α6β3γ2 GABAA/BzR; Ki α6): 12.7 nM; Ki (α1β3γ2 GABAA/BzR; Ki α1): 0.35 nM; Ki (α3β3γ2 GABAA/BzR; Ki α3): 0.2 nM; Ki (α5β3γ2 GABAA/BzR; Ki α5): 0.5 nM
COc1ccc2c(c1)C(=O)N1CC[C@H]1c1c(C(=O)OC(C)(C)C)ncn1-2 [CM-D45]	65.5 nM	0.15 nM	0.23 nM	90.5 nM	30.3 nM	1.65 nM	
C#Cc1ccc2c(c1)C(c1ccccc1)=NCc1c(C(=O)OCCCOC(=O)c3ncn4c3CN=C(c3ccccc3)c3cc(C#C)ccc3-4)ncn1-2 [compound 63, 1,3-Bis(8-acetylenyl-6-phenyl-4H-benzo[f]imidazo[1,5-a][1,4]diazepine-3-carboxy) propyl diester]							Ki (α2β3γ2 GABAA/BzR; Ki α2): 7.4 nM; Ki (α4β3γ2 GABAA/BzR): 5000 nM; Ki (α6β3γ2 GABAA/BzR; Ki α6): 5000 nM; Ki (α1β3γ2 GABAA/BzR; Ki α1): 236 nM; Ki (α3β3γ2 GABAA/BzR; Ki α3): 272 nM; Ki (α5β3γ2 GABAA/BzR; Ki α5): 194 nM
CC[C@H](C)OC(=O)c1cc2c(cn1)[nH]c1ccccc12 [CM-A50 (S)]	59 nM		1000 nM	17 nM	88 nM	144 nM	
CCOC(=O)c1ncn2c1C1CCN1C(=O)c1cc(OC)ccc1-2 (stereo not shown) [CM-D44]	56.3 nM	0.33 nM	0.92 nM	34.3 nM	20.7 nM	0.57 nM	
Fc1ccc2c(c1)[nH]c1c2ncc2[nH]c3ccccc3c21 [MLT-II-16]	10.4 nM		10000 nM	5.05 nM	18.4 nM	260 nM	
Cc1nnc2n1-c1ccc(Br)cc1C(c1ccccc1F)=NC2 [JYI-64]	1.11 nM		5000 nM	0.305 nM	0.62 nM	0.87 nM	
CCC(C)OC(=O)c1ncn2c1C1CCCN1C(=O)c1cc(F)ccc1-2 (stereo not shown) [CM-B44]	43 nM	379 nM	485 nM	32 nM	12 nM	4.3 nM	
c1ccc2c(c1)[nH]c1cnc3c4cccnc4[nH]c3c12 [LJD-III-15E]	14 nM		1000 nM	1.93 nM	19 nM	70.8 nM	
c1ccc2c(c1)[nH]c1c2ncc2[nH]c3ccccc3c21 [MLT-I-70]	1.2 nM		1000 nM	1.1 nM	1.1 nM	40.3 nM	
C#Cc1ccc2c(c1)C(c1cccs1)=NCc1c(C(=O)OCC)ncn1-2 [JC221]	49.4 nM		362 nM	106 nM	182 nM	7.75 nM	

Compound	Ki (α2β3γ2 GABAA/BzR; read-out: Ki α2)	Ki (α4β3γ2 GABAA/BzR; read-out: Ki α4)	Ki (α6β3γ2 GABAA/BzR; read-out: Ki α6)	Ki (α1β3γ2 GABAA/BzR; read-out: Ki α1)	Ki (α3β3γ2 GABAA/BzR; read-out: Ki α3)	Ki (α5β3γ2 GABAA/BzR; read-out: Ki α5)	also measured
CCOC(=O)c1ncoc1-c1ncn2c1C1CCN1C(=O)c1cc(Br)ccc1-2 (stereo not shown) [RY-062 (12)]							Ki (α2β3γ2 GABAA/BzR; Figure 5, read-out: Ki α2): > 1000 nM; Ki (α6β3γ2 GABAA/BzR; Figure 5, read-out: Ki α6): > 2000 nM; Ki (α1β3γ2 GABAA/BzR; Figure 5, read-out: Ki α1): > 1000 nM; Ki (α3β3γ2 GABAA/BzR; Figure 5, read-out: Ki α3): > 500 nM; Ki (α5β3γ2 GABAA/BzR; Figure 5, read-out: Ki α5): 172 nM
C#Cc1ccc2c(c1)C(c1ccccc1F)=NCc1c(C(=O)OCC(F)(F)F)ncn1-2 [JYI-59]	2.6 nM		5000 nM	1.08 nM	11.8 nM	11.5 nM	
CCOC(=O)c1ncoc1-c1ncn2c1C1CCN1C(=O)c1cc(C#C[Si](C)(C)C)ccc1-2 (stereo not shown) [RY-068 (11)]							Ki (α2β3γ2 GABAA/BzR; Figure 5, read-out: Ki α2): 877 nM; Ki (α6β3γ2 GABAA/BzR; Figure 5, read-out: Ki α6): > 1000 nM; Ki (α1β3γ2 GABAA/BzR; Figure 5, read-out: Ki α1): > 500 nM; Ki (α3β3γ2 GABAA/BzR; Figure 5, read-out: Ki α3): 496 nM; Ki (α5β3γ2 GABAA/BzR; Figure 5, read-out: Ki α5): 37 nM
C#Cc1ccc2c(c1)C(=O)N(C)Cc1c(C(=O)OCCCCCOC(=O)c3ncn4c3CN(C)C(=O)c3cc(C#C)ccc3-4)ncn1-2 [compound 56, 1,5-Bis(8-acetyleno-5,6-dihydro-5-methyl-6-oxo-4H-imidazo[1,5a][1,4]benzodiazepine-3-carboxy) pentyl diester]							Ki (α2β3γ2 GABAA/BzR; Ki α2): 661 nM; Ki (α6β3γ2 GABAA/BzR; Ki α6): 54.2 nM; Ki (α1β3γ2 GABAA/BzR; Ki α1): 231 nM; Ki (α3β3γ2 GABAA/BzR; Ki α3): 2670 nM; Ki (α5β3γ2 GABAA/BzR; Ki α5): 5.4 nM
CC(C)c1nc(-c2ncn3c2CN(C)C(=O)c2c(Cl)cccc2-3)no1 [FG8205, reference compound]	2.08 nM		227 nM	0.4 nM	1.16 nM	1.54 nM	
Cc1nnc2n1-c1ccc(Br)cc1C(c1ccccc1Cl)=NC2 [DM-II-90]	1 nM		5000 nM	0.505 nM	0.63 nM	0.37 nM	
CN1Cc2c(C(=O)OC3CC3)ncn2-c2ccc(Cl)cc2C1=O [CD-214]	48.2 nM		168 nM	16.4 nM	42.5 nM	9.8 nM	
Oc1ccc2c(c1)[nH]c1c2ncc2[nH]c3ccccc3c21 [MLT-II-34]	15.9 nM		1000 nM	7.04 nM	22.3 nM	158 nM	
C#Cc1ccc2c(c1)C(c1ccccc1F)=NCC(=O)N2 [JYI-60]	1.64 nM		5000 nM	3.73 nM	4.3 nM	1.7 nM	
O=C(OCC(Cl)(Cl)Cl)c1ncn2c1CN=C(c1ccccc1)c1cc(Br)ccc1-2 [DM-II-33 (C20H13N3O2BrCl3)]	85 nM		5000 nM	88.6 nM	11.6 nM	26.2 nM	
Cc1nnc2n1-c1ccc(Br)cc1C(c1ccccc1F)=NC2 [JYI-64 (C17H12N4FBr)]	1.11 nM		5000 nM	0.305 nM	0.62 nM	0.87 nM	
C#Cc1ccc2c(c1)C(=O)N(C)Cc1c(C(=O)OC(C)(C)C)ncn1-2 [RY-024]	26.3 nM		5.1 nM	26.9 nM	18.7 nM	0.4 nM	
Cc1nnc2n1-c1ccc(Cl)cc1C(c1ccccc1)=NC2 [alprazolam, reference compound]							Ki (α2β3γ2 GABAA/BzR; Ki α2): 0.59 nM; Ki (α6β3γ2 GABAA/BzR; Ki α6): 10000 nM and 1000 nM; Ki (α1β3γ2 GABAA/BzR; Ki α1): 0.8 nM; Ki (α3β3γ2 GABAA/BzR; Ki α3): 1.43 nM; Ki (α5β3γ2 GABAA/BzR; Ki α5): 1.54 nM
O=C(OCC(F)(F)F)c1ncn2c1CN=C(c1ccccc1F)c1cc(-c3ccco3)ccc1-2 [JYI-54]	172 nM		1890 nM	2.89 nM	6.7 nM	57 nM	
CCCC(=O)c1cc2c(cn1)[nH]c1ccccc12 [MSA-IV-35]	16 nM		3000 nM	2.1 nM	21 nM	995 nM	
O=C(OCC(F)(F)F)c1ncn2c1CN=C(c1ccccc1)c1ccccc1-2 [DM-II-30]	13.4 nM		5000 nM	17.6 nM	28.5 nM	7.8 nM	
O=C(OC(C(F)(F)F)C(F)(F)F)c1ncn2c1C1CCCN1C(=O)c1ccccc1-2 (stereo not shown) [MMB-III-18]	140 nM	3500 nM			78 nM	14 nM	
CC[C@H](C)OC(=O)c1ncn2c1[C@@H]1CCCN1C(=O)c1cc(I)ccc1-2 [CM-B31i (ss)]	184 nM	18 nM		90 nM	78 nM	4.9 nM	
C#Cc1ccc2c(c1)C(=O)N1CCC1c1c(-c3ocnc3C(=O)OCC)ncn1-2 (stereo not shown) [RY-069 (13)]							Ki (α2β3γ2 GABAA/BzR; Figure 5, read-out: Ki α2): 622 nM; Ki (α6β3γ2 GABAA/BzR; Figure 5, read-out: Ki α6): > 1000 nM; Ki (α1β3γ2 GABAA/BzR; Figure 5, read-out: Ki α1): 692 nM; Ki (α3β3γ2 GABAA/BzR; Figure 5, read-out: Ki α3): 506 nM; Ki (α5β3γ2 GABAA/BzR; Figure 5, read-out: Ki α5): 19 nM
CC[C@@H](C)OC(=O)c1cc2c(cn1)[nH]c1ccccc12 [CM-A49 (R)]	32.5 nM		1000 nM	7.7 nM	43 nM	69 nM	
